Source: patent US6630177B1, “Products extracted from a plant of the genus Commiphora, particularly the Commiphora mukul plant, extracts containing same and applications thereof, for example in cosmetics” (Parfums Christian Dior, priority 1995, dated 2003)
“Also recorded” adds a separate entry of the source.

Tests used:
[1] = test system: 3T3 F442A; experiment: Determination of the glycero-3-phosphate dehydrogenase (G3PDH) activity in treated fibroblast (preadipocyte) cultures; type: cell-based, murine; settings: for Rate of conversion of NADH: 3T3 F442A cultures treated at 5 μg/ml on D+5, D+7, D+9, G3PDH assayed on D+12, mean of three experiments; for Activity A1 (stimulation of G3PDH activity versus control cultures): 3T3 F442A cultures, calculated from Vp and Vt
From the text: The cells used are 3T3 F442A, which constitute a line of murine preadipocytes selected for their ability to convert to adipocytes if the culture conditions allow, in accordance with the method of Green, H. & Kehinde, C., Cell 1 (1974) 113.
The aim was to measure the expression of two differentiation markers, namely glycero-3-phosphate dehydrogenase (G3PDH) on the one hand and cyclic AMP (cAMP) on the other.
It is pointed out here that the enzyme G3PDH allows the formation, in the fibroblast, of glycerol 3-phosphate, a molecule which is subsequently involved in the synthesis of the intracellular lipids (triglycerides). Thus an increase in the activity of the G3PDH is directly linked to an increase in this synthesis.
The fibroblasts are inoculated at the bottom of Petri dishes of diameter 35 mm in Dulbecco's Modified Eagle's Medium (DMEM), in the presence of 5% of calf serum (CS) and 5% of fetal calf serum (FCS). Each experiment is performed in triplicate.
During the treatment phase, the medium consists of DMEM+10% of fetal calf serum.
The product or extract according to the invention is dissolved in ethanol and used on the cultures at a final concentration of 5 μg/ml.
On day D+5: treatment with resin of Commiphora mukul (extract G), FIIB1 or IIa or IIb at 5 μg/ml in DMEM, 10% FCS
On days D+7 and D+9: treatment identical to that performed on D+5
On day D+12: grinding of the cells for assay of G3PDH.
The cellular monolayer is recovered by scraping and vigorously homogenized in TRIS-HCl buffer (25 mM, pH 7.4), 1 mM EDTA, at 4° C. The G3PDH activity is determined on the supernatant of the ground cellular material immediately after centrifugation.
It is possible to calculate an absorption difference (ΔAbs)/min, which corresponds to the initial rate of the enzymatic reaction.
The results are expressed in terms of specific activity, i.e. in nmol of NADH converted/min/mg of cellular proteins (the total cellular protein content is evaluated by the method of BCA—PIERCE: protein assay reagent).
The activity Al of the products according to the invention on stimulation of the activity of this enzyme is calculated according to the following formula: [formula]
Vp is the mean value, over the three experiments, of the rate of conversion of NADH, expressed in nmol/min/mg of cellular proteins, in the cultures treated with the products according to the invention,
Vt is the mean value of this rate in the control cultures.

[2] = test system: fibroblasts in culture; experiment: Lipogenic activity of the fractions on fibroblasts in culture; type: cell-based; settings: result in words
Method: In a first step, the extract G is subjected to a series of fractionations by high performance liquid chromatography. Each fraction is tested for its lipogenic activity on fibroblasts in culture using the method explained below. These different fractionations ultimately yield an active fraction, FIIB, whose characteristic peaks are identified on the chromatogram.

Row | Compound | Rate of conversion of NADH [1] | Activity A1 (stimulation of G3PDH activity versus control cultures) ([1]; 5 μg/ml) [%] | Lipogenic activity [2] | Increase of the activity of the enzyme G3PDH compared with control cultures ([1]; fibroblast cultures, 5 μg/ml) [fold]
1 | C/C(=C\CC/C(C)=C/CC/C(C)=C/CC[C@@H]1[C@@]2(C)CCC(=O)C(C)(C)[C@@H]2CC[C@@]1(C)O)CO [IIa, (5R, 10S,8R,9R)-3-oxopolypoda-13E,17E,21E-triene-8,30-diol] | 222 ± 88 nmol/min/mg of proteins | 348 | give the best results; also recorded: substantially equivalent | 
2 | C/C(=C\CC/C(C)=C/CC[C@@H]1[C@@]2(C)CCC(=O)C(C)(C)[C@@H]2CC[C@@]1(C)O)CC/C=C(\C)C(=O)O [IIb, (5R,10S,8R,9R)-8-hydroxy-3-oxopolypoda-13E,17E,21 E-trien-30-oic acid] | 352 ± 62 nmol/min/mg of proteins | 610 | give the best results; also recorded: substantially equivalent | 7
